# Reference: PMC12169847, “Targeted protein degradation by KLHDC2 ligands identified by high-throughput screening” (eLife, 2025)
# Where “and” joins values, the source holds several entries; their conditions need not be identical. Identical values can stand only once. Like-named read-outs stand apart in the source and are kept apart here.
# What was measured:
# KEAP1 Kelch domain = target: T1, KEAP1 Kelch domain (Homo sapiens, UniProt Q14145); assay: Fluorescence polarization counter-screen, KEAP1 with TAMRA-NRF2 peptide; format: binding; details: for Fluorescence polarization signal: KEAP1, replicate wells; for inhibitory effect in the KEAP1 counter-screening assay: concentrations less than 20 µM
# T1 construct: HIS6 (N); made in house; host or cells: Escherichia coli BL21(DE3)
# T1 sequence (Q14145 321-609 limits assumed): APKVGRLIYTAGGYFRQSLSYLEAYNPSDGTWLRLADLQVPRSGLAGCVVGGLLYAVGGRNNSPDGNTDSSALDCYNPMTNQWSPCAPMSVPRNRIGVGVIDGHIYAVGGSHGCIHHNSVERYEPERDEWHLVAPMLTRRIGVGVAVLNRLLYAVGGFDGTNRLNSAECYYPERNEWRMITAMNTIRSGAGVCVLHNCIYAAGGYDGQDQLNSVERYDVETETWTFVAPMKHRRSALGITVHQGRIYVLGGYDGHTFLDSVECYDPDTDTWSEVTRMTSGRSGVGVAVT
# BRD4 [1] = target: T2, BRD4 (Homo sapiens, UniProt O60885); assay: Cell-based HiBiT BRD4 degradation assay in HEK293T; set-up: expressed in transfected cells; host or cells: HEK293T; details: for Relative BRD4 levels (HiBiT luminescence): replicate wells; for DC50: BRD4-HiBiT, HEK293T;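 as to all read-outs here: HEK293T cells transiently expressing HiBiT-tagged BRD4, exposed to serially diluted compounds, then lysed for a luminescence read-out that tracks the amount of cellular BRD4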
# BRD4 [2] = target: T2, BRD4; assay: Cell-based endogenous BRD4 degradation assay (western blot) in SK-BR-3; set-up: expressed in transfected cells
# Procedure: SK-BR-3 cells (0.25×10^6 cells/well, 2 mL) were seeded in six-well polystyrene plates for 24 hr before the compounds were added at the indicated doses as DMSO solutions. The protease inhibitor MG132 (Selleck Chemicals) was added to the sixth well along with 10 μM 3d at a concentration of 10 μM. The plate was incubated at 37°C for 24 hr, and the cells from each well were collected and lysed in RIPA buffer (Thermo Fisher 89900) with Halt protease and phosphatase inhibitor cocktail (Thermo Fisher 78440). The cellular content was extracted on ice for 20 min, and the protein concentration was determined by BCA assay (Thermo Fisher 23327). 2 μg of each sample was resolved via SDS-PAGE gels, and western blotting was used to visualize the endogenous BRD4 level (BRD4 primary antibody Abcam plc, Ab128874, RRID:AB_11145462, 1:10,000 dilution) with Bio-Rad Gel Doc XR+ imaging system.
SMILES,inhibitory effect in the KEAP1 counter-screening assay (KEAP1 Kelch domain),"Relative BRD4 levels (HiBiT luminescence) (BRD4 [1]; 4 hr, 0.338702 nM)","Relative BRD4 levels (HiBiT luminescence) (BRD4 [1]; 4 hr, 1.01611 nM)","Relative BRD4 levels (HiBiT luminescence) (BRD4 [1]; 4 hr, 3.04832 nM)","Relative BRD4 levels (HiBiT luminescence) (BRD4 [1]; 4 hr, 9.14495 nM)","Relative BRD4 levels (HiBiT luminescence) (BRD4 [1]; 4 hr, 27.4348 nM)","Relative BRD4 levels (HiBiT luminescence) (BRD4 [1]; 4 hr, 82.3045 nM)","Relative BRD4 levels (HiBiT luminescence) (BRD4 [1]; 4 hr, 246.914 nM)","Relative BRD4 levels (HiBiT luminescence) (BRD4 [1]; 4 hr, 740.741 nM)","Relative BRD4 levels (HiBiT luminescence) (BRD4 [1]; 4 hr, 2222.22 nM)","Relative BRD4 levels (HiBiT luminescence) (BRD4 [1]; 4 hr, 6666.67 nM)","Relative BRD4 levels (HiBiT luminescence) (BRD4 [1]; 4 hr, 20000 nM)","Relative BRD4 levels (HiBiT luminescence) (BRD4 [1]; 24 hr, 0.338702 nM)","Relative BRD4 levels (HiBiT luminescence) (BRD4 [1]; 24 hr, 1.01611 nM)","Relative BRD4 levels (HiBiT luminescence) (BRD4 [1]; 24 hr, 3.04832 nM)","Relative BRD4 levels (HiBiT luminescence) (BRD4 [1]; 24 hr, 9.14495 nM)","Relative BRD4 levels (HiBiT luminescence) (BRD4 [1]; 24 hr, 27.4348 nM)","Relative BRD4 levels (HiBiT luminescence) (BRD4 [1]; 24 hr, 82.3045 nM)","DC50 (BRD4 [1]; 4 hr, read-out: DC50 (4 hr))","DC50 (BRD4 [1]; 24 hr, read-out: DC50 (24 hr)) [nM]",other results
O=C(O)c1cc(Cl)cc2c1NC(c1cccc(OC(F)(F)F)c1)C1C3CCC(C3)C21 (stereo not shown) [compound 6],no inhibitory effect,–,–,–,–,–,–,–,–,–,–,–,–,–,–,–,–,–,–,–,Fluorescence polarization signal (KEAP1 Kelch domain; 0.169351 nM): 16 and 15 and 25; Fluorescence polarization signal (KEAP1 Kelch domain; 0.508053 nM): 18 and 23 and 21; Fluorescence polarization signal (KEAP1 Kelch domain; 1.52416 nM): 13 and 22 and 29; Fluorescence polarization signal (KEAP1 Kelch domain; 4.57247 nM): 22 and 15 and 21; Fluorescence polarization signal (KEAP1 Kelch domain; 13.7174 nM): 20 and 23 and 18; Fluorescence polarization signal (KEAP1 Kelch domain; 41.1523 nM): 29 and 24 and 17; Fluorescence polarization signal (KEAP1 Kelch domain; 123.457 nM): 18 and 24 and 30; Fluorescence polarization signal (KEAP1 Kelch domain; 370.37 nM): 25 and 12 and 20; Fluorescence polarization signal (KEAP1 Kelch domain; 1111.11 nM): 21 and 16 and 26; Fluorescence polarization signal (KEAP1 Kelch domain; 3333.33 nM): 15 and 23 and 32; Fluorescence polarization signal (KEAP1 Kelch domain; 10000 nM): 23 and 26 and 17; EC50 (KEAP1 Kelch domain; in figure): > 20000 nM
Cc1cc(NS(=O)(=O)c2ccc(Nc3nc(-c4c(C)nc5ccccn45)cs3)cc2)no1 [compound 3],did not have an inhibitory effect,–,–,–,–,–,–,–,–,–,–,–,–,–,–,–,–,–,–,–,–
Cc1ccn2c(-c3csc(Nc4ccc(S(=O)(=O)Nc5cc(C)on5)cc4)n3)c(C)nc2c1 [compound 4],did not have an inhibitory effect,–,–,–,–,–,–,–,–,–,–,–,–,–,–,–,–,–,–,–,–
"COC(=O)c1cc(Cl)cc2c1NC(c1cccc(OCCC3CCN(CC4CCN(C(=O)CC5N=C(c6ccc(Cl)cc6)c6c(sc(C)c6C)-n6c(C)nnc65)CC4)CC3)c1)C1C3CCC(C3)C21 [compound 8, Methyl 2-chloro-6-(3-(2-(1-((1-(2-((S)–4-(4-chlorophenyl)-2,3,9-trimethyl-6H-thieno[3,2 f][1,2,4]triazolo[4,3 a][1,4]diazepin-6-yl)acetyl)piperidin-4-yl)methyl)piperidin-4-yl)ethoxy)phenyl)-5,6,6a,7,8,9,10,10a-octahydro-7,10-methanophenanthridine-4-carboxylate]",–,0.9416 and 0.7691 and 0.8677,1.421 and 0.6823 and 1.057,0.9694 and 0.7305 and 0.8098,0.8569 and 0.4906 and 0.8452,0.6224 and 0.978 and 0.6213,0.6909 and 0.6031 and 0.4253,0.2967 and 0.3567 and 0.4735,0.2624 and 0.2035 and 0.2314,0.1885 and 0.1435 and 0.2046,0.1767 and 0.1639 and 0.1864,0.2282 and 0.2025 and 0.226,0.9416 and 0.7691 and 0.8677,1.421 and 0.6823 and 1.057,0.9694 and 0.7305 and 0.8098,0.8569 and 0.4906 and 0.8452,0.6224 and 0.978 and 0.6213,0.6909 and 0.6031 and 0.4253,164 nM,80,"Relative BRD4 levels (HiBiT luminescence) (BRD4 [1]; 24 hr, 246.914 nM): 0.2967 and 0.3567 and 0.4735; Relative BRD4 levels (HiBiT luminescence) (BRD4 [1]; 24 hr, 740.741 nM): 0.2624 and 0.2035 and 0.2314; Relative BRD4 levels (HiBiT luminescence) (BRD4 [1]; 24 hr, 2222.22 nM): 0.1885 and 0.1435 and 0.2046; Relative BRD4 levels (HiBiT luminescence) (BRD4 [1]; 24 hr, 6666.67 nM): 0.1767 and 0.1639 and 0.1864; Relative BRD4 levels (HiBiT luminescence) (BRD4 [1]; 24 hr, 20000 nM): 0.2282 and 0.2025 and 0.226; endogenous BRD4 protein degraded (BRD4 [2]; SK-BR-3, 100 nM, 24 hr): more than 60%; endogenous BRD4 degradation (maximal) (BRD4 [2]; SK-BR-3, 10 µM, 24 hr): 94%; BRD4 remaining (BRD4 [2]; SK-BR-3, 10 µM, DMSO condition, 24 hr): 4%; BRD4 remaining (BRD4 [2]; SK-BR-3, 10 µM, co-treated with MG-132, 24 hr): 29%"

# Now from value to molecule, other results behind:
inhibitory effect in the KEAP1 counter-screening assay (KEAP1 Kelch domain),"Relative BRD4 levels (HiBiT luminescence) (BRD4 [1]; 4 hr, 0.338702 nM)","Relative BRD4 levels (HiBiT luminescence) (BRD4 [1]; 4 hr, 1.01611 nM)","Relative BRD4 levels (HiBiT luminescence) (BRD4 [1]; 4 hr, 3.04832 nM)","Relative BRD4 levels (HiBiT luminescence) (BRD4 [1]; 4 hr, 9.14495 nM)","Relative BRD4 levels (HiBiT luminescence) (BRD4 [1]; 4 hr, 27.4348 nM)","Relative BRD4 levels (HiBiT luminescence) (BRD4 [1]; 4 hr, 82.3045 nM)","Relative BRD4 levels (HiBiT luminescence) (BRD4 [1]; 4 hr, 246.914 nM)","Relative BRD4 levels (HiBiT luminescence) (BRD4 [1]; 4 hr, 740.741 nM)","Relative BRD4 levels (HiBiT luminescence) (BRD4 [1]; 4 hr, 2222.22 nM)","Relative BRD4 levels (HiBiT luminescence) (BRD4 [1]; 4 hr, 6666.67 nM)","Relative BRD4 levels (HiBiT luminescence) (BRD4 [1]; 4 hr, 20000 nM)","Relative BRD4 levels (HiBiT luminescence) (BRD4 [1]; 24 hr, 0.338702 nM)","Relative BRD4 levels (HiBiT luminescence) (BRD4 [1]; 24 hr, 1.01611 nM)","Relative BRD4 levels (HiBiT luminescence) (BRD4 [1]; 24 hr, 3.04832 nM)","Relative BRD4 levels (HiBiT luminescence) (BRD4 [1]; 24 hr, 9.14495 nM)","Relative BRD4 levels (HiBiT luminescence) (BRD4 [1]; 24 hr, 27.4348 nM)","Relative BRD4 levels (HiBiT luminescence) (BRD4 [1]; 24 hr, 82.3045 nM)","DC50 (BRD4 [1]; 4 hr, read-out: DC50 (4 hr))","DC50 (BRD4 [1]; 24 hr, read-out: DC50 (24 hr)) [nM]",SMILES,other results
–,1.014 and 0.8842 and 1.103,0.9863 and 1.241 and 1.012,0.8761 and 0.9572 and 0.9491,0.9491 and 0.7788 and 0.8761,0.9248 and 1.014 and 0.9978,0.9816 and 0.9329 and 0.9248,0.9653 and 0.868 and 0.941,0.7544 and 0.7706 and 0.8518,0.7382 and 0.5841 and 0.7139,0.3732 and 0.3975 and 0.4462,0.3569 and 0.3164 and 0.3326,1.478 and 0.7263 and 0.7659,0.6909 and 0.8141 and 0.7927,0.6888 and 0.7059 and 0.7509,0.6963 and 0.9298 and 0.7745,0.7895 and 0.7691 and 1.0519,0.858 and 0.8752 and 0.9459,2600 nM and 2630 nM,4000,"COC(=O)c1cc(Cl)cc2c1NC(c1cccc(OCCOCCOCCNC(=O)CC3N=C(c4ccc(Cl)cc4)c4c(sc(C)c4C)-n4c(C)nnc43)c1)C1C3CCC(C3)C21 [compound 7, Methyl 2-chloro-6-(3-(2-(2-(2-(2-((S)-4-(4-chlorophenyl)–2,3,9-trimethyl-6H-thieno[3,2 f][1,2,4]triazolo[4,3 a][1,4]diazepin-6-yl)acetamido)ethoxy)ethoxy)ethoxy)phenyl)-5,6,6a,7,8,9,10,10a-octahydro-7,10-methanophenanthridine-4-carboxylate]","Relative BRD4 levels (HiBiT luminescence) (BRD4 [1]; 24 hr, 246.914 nM): 0.8891 and 0.8666 and 0.9223; Relative BRD4 levels (HiBiT luminescence) (BRD4 [1]; 24 hr, 740.741 nM): 1.234 and 1.1783 and 1.43; Relative BRD4 levels (HiBiT luminescence) (BRD4 [1]; 24 hr, 2222.22 nM): 0.8473 and 0.8591 and 0.9544; Relative BRD4 levels (HiBiT luminescence) (BRD4 [1]; 24 hr, 6666.67 nM): 0.1778 and 0.1692 and 0.1789; Relative BRD4 levels (HiBiT luminescence) (BRD4 [1]; 24 hr, 20000 nM): 0.1875 and 0.1318 and 0.1307"
–,–,–,–,–,–,–,–,–,–,–,–,–,–,–,–,–,–,> 20000 nM,> 20000,"COC(=O)c1cc(Cl)cc2c1NC(c1cccc(OCc3ccc(-c4ccc(NC(=O)C[C@@H]5N=C(c6ccc(Cl)cc6)c6c(sc(C)c6C)-n6c(C)nnc65)cc4)cc3)c1)C1C3CCC(C3)C21 (stereo partly drawn) [compound 9, Methyl 2-chloro-6-(3-((4'-(2-((S)-4-(4-chlorophenyl)-2,3,9-trimethyl-6H-thieno[3,2 f][1,2,4]triazolo[4,3 a][1,4]diazepin-6-yl)acetamido)-[1,1'-biphenyl]-4-yl)methoxy)phenyl)--5,6,6a,7,8,9,10,10a-octahydro-7,10-methanophenanthridine-4-carboxylate]","BRD4 degradation (BRD4 [1]; any concentration (<20 µM), 4 or 24 hr): did not promote BRD4 degradation"
